Source: US8399462B2, “JNK modulators” (Roche Palo Alto LLC, priority 2006, dated 2013)

| melting point [°C] | Compound |
| --- | --- |
| > 300 | Cl.N[C@H]1CC[C@H](Nc2nccc(-n3ccc4c(F)cccc43)n2)CC1 |
| 291 to 292 | CS(=O)(=O)CCCOc1cccc2c1ccn2-c1ccnc(N[C@H]2CC[C@H](N)CC2)n1.Cl |
| 263 to 264 | CS(=O)(=O)CCCOc1cccc2c1ccn2-c1ccnc(N[C@H]2CC[C@H](NC(=O)CCN)CC2)n1.Cl |
| 292 to 293 | CS(=O)(=O)CCCOc1cccc2c1ccn2-c1ccnc(N[C@H]2CC[C@H](CN)CC2)n1.Cl |
| 274 to 275 | Cl.NC[C@H]1CC[C@H](Nc2nccc(-n3ccc4c(OCCCC(F)(F)F)cccc43)n2)CC1 |
| 155 to 158.2 | CS(=O)(=O)CCCOc1cccc2c1ccn2-c1ccnc(N[C@H]2CC[C@H](C(=O)N3CCC(=O)CC3)CC2)n1 |
| 189.2 to 190 | CC1(C)OC[C@@H](COc2cccc3c2cnn3-c2ccnc(N[C@H]3CC[C@H](O)CC3)n2)O1 (stereo in doubt) [Compound 98, 4-{4-[4-(2,2-dimethyl-[1,3]dioxolan-4-ylmeth-oxy)-indazol-1-yl]-pyrimidin-2-ylamino}-cyclohexanol] |
| 196 to 198 | CC1(C)OC[C@@H](COc2cccc3c2cnn3-c2ccnc(N[C@H]3CC[C@H](C(=O)N4CCCC4)CC3)n2)O1 (stereo in doubt) [Compound 127, (4-{4-[4-(2,2-dimethyl-[1,3]dioxolan-4-yl-methoxy)-indazol-1-yl]-pyrimidin-2-ylamino}-cyclohexyl)-pyrrolidin-1-ylmethanone] |
| 247 to 247.8 | CC1(C)OC[C@@H](COc2cccc3c2cnn3-c2ccnc(N[C@H]3CC[C@H](NS(C)(=O)=O)CC3)n2)O1 (stereo in doubt) [Compound 128, N-(4-{4-[4-(2,2-di-methyl[1,3]dioxolan-4-ylmethoxy)-indazol-1-yl]-pyrimidin-2-yl-amino}-cyclohexyl)-methanesulfonamide] |
| 214.5 to 215.5 | CC(=O)N[C@H]1CC[C@H](Nc2nccc(-n3ncc4c(OC[C@@H]5COC(C)(C)O5)cccc43)n2)CC1 (stereo in doubt) [Compound 131, N-(4-{4-[4-(2,2-di-methyl[1,3]dioxolan-4-ylmethoxy)-indazol-1-yl]-pyrimidin-2-yl-amino}-cyclohexyl)-acetamide] |
| 178.5 to 180 | CC1(C)OC[C@@H](COc2cccc3c2cnn3-c2ccnc(N[C@H]3CC[C@H](C(C)(C)O)CC3)n2)O1 (stereo in doubt) [Compound 132, 2-(4-{4-[4-(2,2-di-methyl[1,3]dioxolan-4-ylmethoxy)-indazol-1-yl]-pyrimidin-2-yl-amino}-cyclohexyl)-propan-2-ol] |
| 166 to 167 | O=C([C@H]1CC[C@H](Nc2nccc(-n3ncc4c(OC[C@@H](O)CO)cccc43)n2)CC1)N1CCCC1 (stereo in doubt) [Compound 153, (4-{4-[4-(2,3-dihydroxy-propoxy)-indazol-1-yl]-pyrimidin-2ylamino}-cyclohexyl)-pyrrolidin-1-ylmethanone] |
| 202 to 205 | CC(=O)N[C@H]1CC[C@H](Nc2nccc(-n3ncc4c(OC[C@@H](O)CO)cccc43)n2)CC1 (stereo in doubt) [Compound 154, N-(4-{4-[4-(2,3-di-hydroxy-propoxy)-indazol-1-yl]-pyrimidin-2-ylamino}-cyclohexyl)-acetamide] |
| 199.4 to 200.4 | C[C@@H](CO)COc1cccc2c1cnn2-c1ccnc(N[C@H]2CC[C@H](C(=O)N3CCCC3)CC2)n1 (stereo in doubt) [Compound 171, (4-{4-[4-(3-hydroxy-2-methylpropoxy)-indazol-1-yl]-pyrimidin-2-ylamino}-cyclohexyl)-pyrrolidin-1-ylmethanone] |
| 215 to 216 | CC(=O)N[C@H]1CC[C@H](Nc2nccc(-n3ncc4c(OC[C@@H](C)CO)cccc43)n2)CC1 (stereo in doubt) [Compound 172, N-(4-{4-[4-(3-hydroxy-2-methylpropoxy)-indazol-1-yl]-pyrimidin-2-ylamino}-cyclohexyl)-acetamide] |
| 211 to 212.5 | C[C@@H](CO)COc1cccc2c1cnn2-c1ccnc(N[C@H]2CC[C@H](C(C)(C)O)CC2)n1 (stereo in doubt) [Compound 185, 3-(1-{2-[4-(2-hydroxy-prop-2-yl)-cyclohexyl-amino]-pyrimidin-4-yl}-1H-indazol-4-yloxy)-2-methylpropan-1-ol] |
| 222 to 224 | C[C@@H](CO)COc1cccc2c1cnn2-c1ccnc(N[C@H]2CC[C@H](N(C)S(C)(=O)=O)CC2)n1 (stereo in doubt) [Compound 186, N-(4-{4-[4-(3-hydroxy-2-methylpropoxy)-indazol-1-yl]-pyrimidin-2-ylamino}-cyclohexyl)-N-methyl-methanesulfonamide] |
| 211 to 212 | CS(=O)(=O)C[C@H](O)COc1cccc2c1cnn2-c1ccnc(N[C@H]2CC[C@H](O)CC2)n1 (stereo in doubt) [Compound 198, 4-{4-[4-(2-hydroxy-3-methanesulfonyl-propoxy)-indazol-1-yl]-pyrimidin-2-ylamino}-cyclohexanol] |
| 174 to 175 | CS(=O)(=O)CCCOc1cccc2c1cnn2-c1ccnc(N[C@H]2CC[C@H](C(=O)N3CC[C@@H](O)C3)CC2)n1 (stereo in doubt) [Compound 216, (3-hydroxy-pyrrolidin-1-yl)-(4-{4-[4-(3-methane-sulfonyl-propoxy)-indazol-1-yl]-pyrimidin-2-ylamino}-cyclohexyl)-methanone] |
| 175 to 176 | CS(=O)(=O)CCCOc1cccc2c1cnn2-c1ccnc(N[C@H]2CC[C@H](C(=O)N3CC[C@H](O)C3)CC2)n1 (stereo in doubt) [Compound 217, (3-hydroxy-pyrrolidin-1-yl)-(4-{4-[4-(3-methane-sulfonyl-propoxy)-indazol-1-yl]-pyrimidin-2-ylamino}-cyclohexyl)-methanone] |
| 232 to 233 | CS(=O)(=O)C[C@H](O)COc1cccc2c1cnn2-c1ccnc(N[C@H]2CC[C@H](C(=O)N3CCC(O)CC3)CC2)n1 (stereo in doubt) [Compound 234, (4-{4-[4-(2-hydroxy-3-methanesulfonyl-propoxy)-indazol-1-yl]-pyrimidin-2-ylamino}-cyclohexyl)-(4-hydroxy-piperidin-1-yl)-methanone] |
| 161 to 162 | NS(=O)(=O)CCCOc1cccc2c1cnn2-c1ccnc(N[C@H]2CC[C@H](C(=O)N3CC[C@H](O)C3)CC2)n1 (stereo in doubt) [Compound 252, 3-(1-{2-[4-(3-hydroxy-pyrrolidine-1-carbonyl)-cyclohexylamino]-pyrimidin-4-yl}-1H-indazol-4-yloxy)-propane-1-sulfonic acid amide] |
| 178 to 179 | NS(=O)(=O)CCCOc1cccc2c1cnn2-c1ccnc(N[C@H]2CC[C@H](C(=O)N3CC[C@@H](O)C3)CC2)n1 (stereo in doubt) [Compound 253, 3-(1-{2-[4-(3-hydroxy-pyrrolidine-1-carbonyl)-cyclohexylamino]-pyrimidin-4-yl}-1H-indazol-4-yloxy)-propane-1-sulfonic acid amide] |
| 214 to 215 | CC(C)(CO)COc1cccc2c1cnn2-c1ccnc(N[C@H]2CC[C@H](C(=O)N3CC[C@@H](O)C3)CC2)n1 (stereo in doubt) [Compound 261, (4-{4-[4-(3-hydroxy-2,2-dimethyl-propoxy)-indazol-1-yl]-pyrimidin-2-ylamino}-cyclohexyl)-(3-hydroxy-pyrrolidin-1-yl)-methanone] |
